Consider one compound from patent US20100093861A1, “TREATMENT OF INSULIN RESISTANCE OR DISEASES ASSOCIATED WITH INSULIN RESISTANCE” (Stevia ApS, priority 2006, published 2010).

The test system of one assay is InsI. The experiment in a line: Affymetrix gene chip analysis of KKAy islets: InsI. In kind it is in vivo, mice. The following applies: ISV vs. KKAy control islets, 9 weeks. The protocol:
(§1) cRNA preparation and in vitro transcription: In total 6 Affymetrix arrays MOE430 2.0 probe array cartridge were used i.e. for analysis of 3 replicas for the KKAy control group and the ISV group, respectively. Each of the 6 samples consisted of pooled RNA from 3-4 KKAy mice. Preparation of target for hybridization was prepared from 340 ng of total RNA using MessageAmp™ II aRNA Amplification Kits (Ambion), according to the manufacturers instructions. Arrays were hybridised and scanned as described elsewhere (Kruhoffer et al., 2005).

In a further assay the test system is 11-beta-HSD-1. Kind of assay: Affymetrix gene chip analysis of KKAy islets: 11-beta-HSD-1. The class given is in vivo, mice. The note with it: ISV vs. KKAy control islets, 9 weeks. The protocol:
as §1

The next assay relates to KKAy-mice. The experiment in a line: In vivo study of plasma insulin, glucose, triglycerides and body weight in KKAy-mice after isosteviol (Example 3). The protocol:
Twenty six male KKAy-mice (Clea Japan, Tokyo, Japan), all 5 week-old, weighing 22-25 g were randomized to 2 groups and treated for 9 weeks with; • A: standard chow diet (control); • B: standard chow diet+20 mg/kg BW of Isosteviol (hereinafter ISV).
The composition of the standard chow diet dry matter was: Protein 24%, carbohydrate 71%, and Lipids 5%. ISV (ent-16-ketobeyeran-19-oic acid; Wako Pure Chemical Industries, Osaka, Japan) was incorporated in the mice food pellet and administered orally.
Hormones and lipids were measured from blood sample at start and end of the treatment period. Blood sample was taken from the tail of the animals on chilled tubes containing heparin/aprotinin and centrifuged (4000 g, 60 seconds, […]), and plasma was frozen for subsequent analysis of insulin, glucose and triglycerides. Fasting blood glucose, as well as BW, was measured before and after intervention.
Plasma blood glucose was determined using the glucose oxidase method (GOD-PAP,
Boehringer Mannheim, GmbH Germany). Insulin was determined by radioimmunoassay with a guinea pig antiporcine insulin antibody (PNILGP4, Novo Nordisk, Bagsvaerd, Denmark), and mono-[125I]-(Tyr A14) labelled human insulin (Novo Nordisk) as tracer and rat insulin (Novo Nordisk) as standard. We separated free and bound radioactivity using ethanol (Heding, 1972). Interassay and intra-assay variation was below 10%. […] Triglycerides was determined using colorimetric kits (Roche Diagnostics, Boehringer Mannheim, GmbH Germany). The fasting glucose-insulin index was calculated as the product of plasma insulin and plasma glucose ([plasma insulin ng/ml]×[plasma glucose mmol/l]/1000) and compared between groups as relative units (Chang et al., 2005).

The subject of another assay is C/EBPalpha. Kind of assay: Affymetrix gene chip analysis of KKAy islets: C/EBPalpha. In kind it is in vivo, mice. The note with it: ISV vs. KKAy control islets, 9 weeks. The protocol:
as §1

For another assay, the system named is Akt1. The experiment in a line: Affymetrix gene chip analysis of KKAy islets: Akt1. The class given is in vivo, mice. The following applies: ISV vs. KKAy control islets, 9 weeks. The protocol:
as §1

Setting [1] is: ISV group of KKAy mice, age 5 weeks, before treatment.
Setting [2] is: KKAy mice, 20 mg/kg BW in diet, after 9-week treatment.

For the compound `C[C@@]12CC[C@@H]3[C@@](CC[C@H]4[C@@]3(C)CCC[C@@]4(C)C(=O)O)(CC1=O)C2` (single isomer, unassigned; ent-16) [ISV, ent-16-ketobeyeran-19-oic acid], the “array: change of InsI expression” value in the assay with InsI was “did not show any statistical significant increase”. In addition, in the assay with 11-beta-HSD-1, the “array: change of 11-beta-HSD-1 expression” value was “down regulation”. In the assay with KKAy-mice (9 weeks treatment), the “reduction of plasma insulin increase compared to the KKAy control” value worked out at 62% and the “reduction of the plasma TG increase in the KKAy” value turned out to be 74%. In the assay with KKAy-mice (ISV group of KKAy mice before treatment, product of plasma insulin and plasma glucose), the “glucose-insulin index at start of study” value is 8.6 unit. In the assay with KKAy-mice (setting [1]), the “plasma glucose at start of study” value was determined as 8.9 mmol/L and the “plasma insulin at start of study” value was determined as 1.0 ng/mL. Besides, in the assay on KKAy-mice (ISV group of KKAy mice, before treatment), the “plasma TG level at age 5 week” value was 1.25 mmol/L. Besides, in the assay on KKAy-mice (KKAy at 5 weeks as baseline, 9 weeks treatment), the “reduction in plasma glucose compared to the increase for the KKAy” value is recorded as 59%. Further, the “plasma TG level at age 14 weeks” value with KKAy-mice (KKAy mice after 9 weeks treatment) was found to be 2.02 mmol/L. For the same compound, the “glucose-insulin index at the end of the study” value with KKAy-mice (KKAy mice after 9 weeks treatment, product of plasma insulin and plasma glucose) was found to be 1596 unit. For the same compound, in the assay with KKAy-mice (setting [2]), the “plasma glucose at the end of the study” value amounted to 16.2 mmol/L and the “plasma insulin at the end of the study” value is 80.9 ng/mL. The “fold increase of plasma glucose during study period” value in the assay with KKAy-mice (KKAy mice, 20 mg/kg BW, 9 weeks, KKAy control 2.8 fold) amounted to 1.8 fold. Further, the “fold increase of plasma insulin during study period” value in the assay on KKAy-mice (KKAy mice, 20 mg/kg BW, 9 weeks, KKAy control 266 fold) turned out to be 81 fold. The “increase of TG level at age 14 weeks compared to age 5 week” value in the assay with KKAy-mice (KKAy mice, 9 weeks treatment, KKAy control 192%) was 62%. The “reduction in weight at the end of the 9 week treatment period” value in the assay on KKAy-mice (KKAy mice, vs. KKAy control) is 13%. Moreover, the “body weight after 5 weeks” value in the assay with KKAy-mice (KKAy mice, KKAy control 38.6 g) turned out to be 29.9 g. The “body weight after 9 weeks treatment” value in the assay with KKAy-mice (KKAy mice, KKAy control 41.6 g) turned out to be 36.3 g. The “array: change of C/EBPalpha expression” value in the assay with C/EBPalpha was “down regulation”. The “array: change of Akt1 expression” value with Akt1 was “no changes”.
